Like-named read-outs stand apart in the source and are kept apart here.
How the values were obtained:
[1] = test system: Salmonella typhimurium TA98, TA102; assay: Ames test for genotoxicity; details: 8 conc., 1.5-5000 μg/plate; +/− S9 both; strains TA98, TA102
Experimental: The Ames test determines the ability of a compound to reverse an introduced mutation in two strains of Salmonella typhimurium (selected from TA98, TA100, TA15345, TA1537, and TA102). (See for example Maron, D. M. and Ames, B. N., Mutat. Res., 1983, 113, 173-215.) Compounds were tested at eight dose levels 1.5, 5, 15, 50, 150, 500, 1500, and 5000 μg/plate in both the presence and absence of S-9 microsomal fraction in two bacterial strains (TA98, TA102). After incubation at 37° the number of revertant colonies was compared with the number of spontaneous revertants on negative (vehicle) plates. Positive control plates containing a known mutagen active in each of the strains in the presence of S-9 extract (2-aminoanthracene at 1-5 ug/plate) were also run.

[2] = test system: CD1 mice; assay: Forced swim model (depression result); assay type: in vivo; details: i.p.
Experimental: CD1 mice were adminstered a compounds shown in Table 11, desipramine, Ro 25-6981 or a control vehicle and subjected to a forced swim test. All compounds were administered as intraperitoneal injections. Animals were placed into a beaker (15 cm diameter) of water held at 25° C. with a depth of 15 cm 30 min after compound administration. Behavior was videotaped for 6 minutes from the side of the beaker and scored subsequently for struggling behavior. Results were analyzed by one-way ANOVA and post-hoc Bonferroni tests. Total immobility time refers to the time that the animal spends floating or engaged in minimal activity to keep afloat for at least 3 seconds. Subtle movements of feet, tail or head required to maintain the eyes, ears, and nose above the surface of the water were excluded as immobility. The video-tapes were scored by investigators unfamiliar with the treatments of the mice.
For the data in FIG. 1, test compounds were tested at a dose of 10 mg/ kg. Desipramine was tested at a dose of 20 mg/kg. Ro 25-6981 was tested at a dose of 5 mg/kg. Number of CD1 mice tested per groups was 8-10. ANOVA: F(11,98)=3.638, p<0.01. *=p<0.05 compared to vehicle. +=p<0.05 compared to desipramine.
For the data in FIG. 2, compounds NP10075 and NP10076 were tested at doses of 5 mg/kg, 7.5 mg/kg and 10 mg/kg; desipramine was tested at a dose of 20 mg/kg; and Ro 25-6981 was tested at a dose of 5 mg/kg. Number of CD1 mice tested per group was 8-10. *=p<0.05, **=p<0.01 ANOVA, post-hoc Bonferroni from control.

[3] = target: NMDA receptor (NR1 + NR2 subunits) (Rattus norvegicus, UniProt P35439+Q00960); assay: Two electrode voltage clamp recording from Xenopus laevis oocytes (pH dependence of NMDA antagonism); assay type: cell-based; details: Table 27; pH not stated; read-out: Rat IC50
Method in brief: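 Oocytes expressing rat NR1/NR2 were held at −40 mV at 23 °C, 2–7 days after injection, in Ba²⁺ saline with pH adjusted and 10 µM EDTA. Compounds at 4–8 concentrations were co-applied with 50 µM glutamate and 30 µM glycine. Percent of the initial response was leak-corrected, pooled over 3–6 frogs and fitted with a Hill equation (minimum ≥0) to give IC50.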

[4] = Plasma and brain exposure assessment; assay type: in vivo, Mice; details: mouse, ip; for concentration at 30 min: calculated from the brain:plasma ratio determined by LC-MS/MS
Experimental: Mice were administered a dose of test compound (10 mg/kg by i.p.) and blood and brain tissue samples collected at the indicated times post drug administration (n=3-5). Blood samples were collected in K-EDTA tubes and centrifuged for ten minutes immediately after collection, and the plasma was stored at −80° C. until analysis. Brains were immediately removed from the skull and the meninges and cerebellum removed, rinsed with ice-cold PBS, weighed and then homogenized at 4° C. in 2-3 volumes of 50 mM potassium phosphate buffer (pH 7.4) and stored at −80° C. until analysis. Plasma and brain homogenates were extracted by the addition of 5 volumes of cold acetonitrile, mixed well by vortexing and centrifuged at 4000 rpm for 15 minutes. The supernatant fractions were analyzed by LC-MS/MS operating in multiple reaction monitoring mode (MRM) and analyzed for the parent compound to determine the plasma or brain concentration. Internal standards were added to calibrate each sample. An eight point standard curve was prepared similarly in naïve plasma and brain for each compound of interest. Based on occupancy studies of other NR2B antagonists in rodents (CP-101,606, Ro25-6981, and Merck20j), plus plasma levels achieved in Preskorn et al., brain exposures for the test compounds were consistent with “anticipated levels” required for efficacy.

[5] = test system: mice; assay: Open field activity test; assay type: in vivo; details: 10 mg/kg, intraperitoneal
Experimental: Spontaneous activity was evaluated in an automated Omnitech Digiscan apparatus (AccuScan Instruments, Columbus, Ohio). Animals were given vehicle, imipramine, or a dose of a test compound. All compounds were administered as intraperitoneal injections. Activity was summated at 5 minute intervals over the 90 min period of testing. At 60 minutes, the mice were injected with 10 mg/kg NP10075, 10 mg/kg NP10076 or a vehicle. Locomotion was measured in terms of the total distance traveled (horizontal activity). Results were analyzed by one-way ANOVA and post-hoc Bonferroni tests.

[6] = test system: MDR1-MDCK cell monolayers that express the multidrug transporter P-gp; assay: In vitro cell permeability assay to predict brain penetration potential; assay type: in vitro ADME; set-up: key: High: when Papp A−B≧3.0×10−6 cm/s, and efflux<3.0; Moderate: when Papp A−B≧3.0×10−6 cm/s, and 10>efflux≧3.0; Low: when either Papp A−B≧3.0×10−6 cm/s, and efflux≧10, or when Papp A−B<3.0×10−6 cm/s; details: 5 μM, pH 7.4, 2 hr, from Papp A-B and efflux ratio
Experimental: Penetration Classification (Table 24) using the in vitro cell permeability assay to predict bran penetration potential: Transwell® wells containing MDR1-MDCK cell monolayers that express the multidrug transporter P-gp were used for measuring the percent recovery of compound after dosing both sides of a cell monolayer with the test article. Monolayers were grown for 7-11 days at which time 5 μM of the test article was made by dilution from DMSO stocks into a Hank's balanced salt solution (pH 7.4), final DMSO not greater than 1%, and added to: a) the apical side for A-B permeability (apical to basal) assessment, or separately b) the basal side for the B-A permeability (basal to apical) assessment, all at pH 7.4. After a 2 hr incubation (37° C.) both the apical and the basal compartments were sampled and the amount of test article present determined by generic LC-MS/MS methods against a ≧4 point calibration curve. Experiments were done in duplicate. Apparent permeability (Papp units are reported×10−6 cm/s) are determined for the A−B and the B−A directions as well as the Efflux ratio (PappB−A/Papp A−B). The blood-brain barrier penetration potential is classified as follows: “High” when Papp A−B≧3.0×10−6 cm/s, and efflux<3.0; “Moderate” when Papp A−B≧3.0×10−6 cm/s, and 10>efflux≧3.0; and “Low” when either Papp A−B≧3.0×10−6 cm/s, and efflux≧10, or when Papp A−B<3.0×10−6 cm/s.

[7] = Brain exposure (brain:plasma ratio, Table 24); assay type: in vivo, Rats; details: for Kp at 15 min: 15 m
Experimental: Animals were fasted overnight prior to dose administration and food returned to the animals two hours after dosing. Following IV dosing, blood samples (ca 200 μL) were collected into separate tubes containing anticoagulant (K-EDTA) via the orbital plexus at various times post administration. Plasma samples were prepared immediately after collection by centrifugation for ten minutes using a tabletop centrifuge, and stored at −80° C. Brain tissue was weighed, homogenized on ice in 50 mM phosphate buffer (2 ml per brain) and the homogenate stored at −80° C. Plasma and brain homogenate samples were extracted by the addition of 5 volumes of cold acetonitrile, mixed well by vortexing and centrifuged at 4000 rpm for 15 minutes. The supernatant fractions were analyzed by LC-MS/MS operating in multiple reaction monitoring mode (MRM). The amount of parent compound in each sample was calculated by comparing the response of the analyte in the sample to that of a standard curve.

[8] = plasma (free, unbound), mice 10 mg/kg i.p., 30 minute, based on % free fraction measured in protein binding study, read-out: Free Plasma
[9] = plasma (free, unbound), mice 10 mg/kg i.p., 30 minute, based on % free fraction, read-out: Free Plasma
[10] = plasma, mice dosed 10 mg/kg, i.p., 30 minute time point, LC-MS/MS, read-out: Plasma

Chain of NMDA receptor (NR1 + NR2 subunits) (Q00960 27-1482, other chains not shown): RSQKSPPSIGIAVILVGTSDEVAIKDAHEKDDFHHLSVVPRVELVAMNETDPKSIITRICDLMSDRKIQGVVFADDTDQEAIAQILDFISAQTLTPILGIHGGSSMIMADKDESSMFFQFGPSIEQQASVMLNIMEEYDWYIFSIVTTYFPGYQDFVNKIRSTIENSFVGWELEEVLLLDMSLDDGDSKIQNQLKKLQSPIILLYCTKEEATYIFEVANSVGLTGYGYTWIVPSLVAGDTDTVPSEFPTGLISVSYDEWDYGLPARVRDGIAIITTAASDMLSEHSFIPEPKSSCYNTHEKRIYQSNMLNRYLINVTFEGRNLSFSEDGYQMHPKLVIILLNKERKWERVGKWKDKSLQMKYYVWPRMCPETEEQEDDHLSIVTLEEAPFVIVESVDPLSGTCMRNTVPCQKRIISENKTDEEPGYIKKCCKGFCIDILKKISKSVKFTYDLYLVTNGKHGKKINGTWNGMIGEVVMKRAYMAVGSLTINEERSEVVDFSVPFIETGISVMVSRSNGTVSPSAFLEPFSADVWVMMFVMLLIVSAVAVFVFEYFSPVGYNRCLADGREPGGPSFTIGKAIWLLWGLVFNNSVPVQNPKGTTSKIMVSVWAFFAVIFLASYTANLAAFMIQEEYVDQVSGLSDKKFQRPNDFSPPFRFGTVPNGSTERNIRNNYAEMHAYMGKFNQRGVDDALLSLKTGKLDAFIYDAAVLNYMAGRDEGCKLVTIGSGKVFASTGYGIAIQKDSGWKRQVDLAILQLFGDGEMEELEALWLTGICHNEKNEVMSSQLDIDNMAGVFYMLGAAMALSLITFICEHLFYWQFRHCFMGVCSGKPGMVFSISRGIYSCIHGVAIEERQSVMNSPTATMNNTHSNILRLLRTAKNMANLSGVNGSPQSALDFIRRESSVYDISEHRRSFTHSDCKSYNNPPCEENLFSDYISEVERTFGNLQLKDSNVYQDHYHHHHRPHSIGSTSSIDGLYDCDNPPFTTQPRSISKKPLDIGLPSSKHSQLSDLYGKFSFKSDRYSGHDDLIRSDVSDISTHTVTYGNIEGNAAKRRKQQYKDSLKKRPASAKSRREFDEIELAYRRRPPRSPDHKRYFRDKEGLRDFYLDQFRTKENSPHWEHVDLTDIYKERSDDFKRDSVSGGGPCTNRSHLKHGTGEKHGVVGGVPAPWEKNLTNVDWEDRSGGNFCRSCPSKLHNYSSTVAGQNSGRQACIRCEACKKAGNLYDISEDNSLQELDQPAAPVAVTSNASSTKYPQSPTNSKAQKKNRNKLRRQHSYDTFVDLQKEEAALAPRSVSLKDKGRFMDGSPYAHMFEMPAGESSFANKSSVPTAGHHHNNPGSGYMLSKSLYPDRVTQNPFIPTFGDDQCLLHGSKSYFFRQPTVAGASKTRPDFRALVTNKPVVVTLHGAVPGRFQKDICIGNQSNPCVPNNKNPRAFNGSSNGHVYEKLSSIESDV

SMILES: CCCCN(CCc1ccc(Cl)c(Cl)c1)CC(O)COc1ccc(NS(C)(=O)=O)cc1 (stereo not drawn) [Compound 93-31]
- Genotoxicity (Ames) Result [1]: No positive

SMILES: O=c1[nH]c2ccc(OC[C@@H](O)CN3CCN(c4ccc(Cl)cc4)CC3)cc2o1 [NP10056]
- Genotoxicity (Ames) Result [1]: No positive

SMILES: O=C(COc1ccc2[nH]c(=O)oc2c1)N1CCN(c2ccc(Cl)c(Cl)c2)CC1 [NP10068]
- Depression Result [2]: active
- IC50 [3]: 60 nM
- concentration at 30 min ([4]; mice 10 mg/kg i.p.): 48 nM
- concentration at 30 minute [4, 8]: 61 ng/mL
- concentration at 30 minute [4, 9]: 145 nM
- concentration at 30 minute [4, 10]: 679 ng/mL

SMILES: NC(=O)Nc1ccc(OC[C@@H](O)CN2CCN(c3ccc(Cl)cc3)CC2)cc1 [NP10075]
- Genotoxicity (Ames) Result [1]: No positive
- Depression Result [2]: active
- IC50 [3]: 108 nM
- mouse open field activity (total distance traveled) [5]: Neither NP10075 or NP10076 altered mouse open field activity
- concentration at 30 min ([4]; mice 10 mg/kg i.p.): 130 nM
- concentration at 30 minute [4, 8]: 220 ng/mL
- concentration at 30 minute [4, 9]: 542 nM
- concentration at 30 minute [4, 10]: 3140 ng/mL

SMILES: O=C1N(C[C@H](O)COc2ccc(O)cc2)CCN1c1ccc(Cl)cc1 [NP10076]
- Depression Result [2]: active
- IC50 [3]: 72 nM
- concentration at 30 min ([4]; mice 10 mg/kg i.p.): 64 nM
- concentration at 30 minute [4, 8]: 34 ng/mL
- concentration at 30 minute [4, 9]: 94 nM
- concentration at 30 minute [4, 10]: 377 ng/mL

SMILES: O=c1[nH]c2ccc(OC[C@@H](O)CN3CCN(c4ccc(Cl)cc4)CC3)cc2[nH]1 [NP10122]
- Genotoxicity (Ames) Result [1]: No positive

SMILES: Nc1ccc(OC[C@@H](O)CN2CCN(c3ccc(Cl)c(Cl)c3)C2=O)cc1 [NP10226]
- Genotoxicity (Ames) Result [1]: No positive

SMILES: Nc1ccc(OC[C@@H](O)CN2CCN(c3ccc(Cl)cc3)CC2)cc1 [NP10231]
- Genotoxicity (Ames) Result [1]: No positive

SMILES: NC(=O)Nc1ccc(OC[C@@H](O)CN2CCN(c3ccc(Cl)cc3)C2=O)cc1 [drawing 805]
- BBB Pene Classification [6]: Low
- RATIO: Brain:plasma (Direct) ([7]; 1 MPK i.v.): Below Detection limit (~0)

SMILES: O=C(COc1ccc2[nH]c(=O)oc2c1)N1CCN(c2ccc(Cl)c(Cl)c2)CC1 [drawing 806]
- BBB Pene Classification [6]: Moderate (when Papp A−B≧3.0×10−6 cm/s, and 10>efflux≧3.0)
- Kp at 15 min ([7]; rat, brain and plasma, ip, 10 mg/kg, 10 MPK i.p., read-out: RATIO: Brain:plasma (Direct)): 0.25
- Kp at 30 min ([7]; rat, brain and plasma, ip, 10 mg/kg, 10 MPK i.p., 30 m, read-out: RATIO: Brain:plasma (Direct)): 0.49
- Kp at 1 h ([7]; rat, brain and plasma, ip, 10 mg/kg, 10 MPK i.p., 1 hr, read-out: RATIO: Brain:plasma (Direct)): 0.3
- Kp at 2 h ([7]; rat, brain and plasma, ip, 10 mg/kg, 10 MPK i.p., 2 hr, read-out: RATIO: Brain:plasma (Direct)): 0.36
- Kp ([7]; rat, brain and plasma, ip, 10 mg/kg, 10 MPK i.p., avg, read-out: RATIO: Brain:plasma (Direct)): 0.33

SMILES: O=C(COc1ccc2[nH]c(=O)[nH]c2c1)N1CCN(c2ccc(Cl)c(Cl)c2)CC1 [drawing 807]
- BBB Pene Classification [6]: Moderate (when Papp A−B≧3.0×10−6 cm/s, and 10>efflux≧3.0)
- Kp at 15 min ([7]; rat, brain and plasma, iv, 1 mg/kg i.v., read-out: RATIO: Brain:plasma (Direct)): 0.04
- Kp at 30 min ([7]; rat, brain and plasma, iv, 1 mg/kg i.v., 30 m, read-out: RATIO: Brain:plasma (Direct)): 0.06
- Kp at 1 h ([7]; rat, brain and plasma, iv, 1 mg/kg i.v., 1 hr, read-out: RATIO: Brain:plasma (Direct)): 0.07
- Kp at 3 h ([7]; rat, brain and plasma, iv, 1 mg/kg i.v., 3 hr, read-out: RATIO: Brain:plasma (Direct)): 0.1
- Kp ([7]; rat, brain and plasma, iv, 1 mg/kg i.v., avg., read-out: RATIO: Brain:plasma (Direct)): 0.07

SMILES: Oc1ccc(OC[C@@H](O)CSc2nc3cc(Cl)c(Cl)cc3[nH]2)cc1 [drawing 808]
- BBB Pene Classification [6]: High (when Papp A−B≧3.0×10−6 cm/s, and efflux<3.0)
- RATIO: Brain:plasma (Direct) ([7]; 3 MPK i.v., 2 hr): BLQ
- Kp at 30 min ([7]; rat, brain and plasma, iv, 3 mg/kg, 3 MPK i.v., 30 m, read-out: RATIO: Brain:plasma (Direct)): 0.15
- Kp at 1 h ([7]; rat, brain and plasma, iv, 3 mg/kg, 3 MPK i.v., 1 hr, read-out: RATIO: Brain:plasma (Direct)): 0.35
- Kp ([7]; rat, brain and plasma, iv, 3 mg/kg, 3 MPK i.v., avg, read-out: RATIO: Brain:plasma (Direct)): 0.25

SMILES: O=c1[nH]c2ccc(OC[C@@H](O)CSc3nc4cc(Cl)c(Cl)cc4[nH]3)cc2o1 [drawing 809]
- BBB Pene Classification [6]: Moderate (when Papp A−B≧3.0×10−6 cm/s, and 10>efflux≧3.0)
- RATIO: Brain:plasma (Direct) ([7]; 3 MPK i.v., 30 m): BLQ (avg); BLQ (30 m), BLQ (1 hr),
- RATIO: Brain:plasma (Direct) ([7]; 3 MPK i.v., 1 hr): BLQ (avg); BLQ (30 m), BLQ (1 hr),
- RATIO: Brain:plasma (Direct) ([7]; 3 MPK i.v., avg): BLQ (avg); BLQ (30 m), BLQ (1 hr),

Source: patent US20110160223A1, “NMDA Receptor Antagonists for the Treatment of Neuropsychiatric Disorders” (priority 2008, published 2011)
